We go through 11 compounds from US8173680B2, “Cannabinoid receptor modulators” (7TM Pharma A/S, priority 2007, dated 2012).

T1 sequence (P21554 whole entry): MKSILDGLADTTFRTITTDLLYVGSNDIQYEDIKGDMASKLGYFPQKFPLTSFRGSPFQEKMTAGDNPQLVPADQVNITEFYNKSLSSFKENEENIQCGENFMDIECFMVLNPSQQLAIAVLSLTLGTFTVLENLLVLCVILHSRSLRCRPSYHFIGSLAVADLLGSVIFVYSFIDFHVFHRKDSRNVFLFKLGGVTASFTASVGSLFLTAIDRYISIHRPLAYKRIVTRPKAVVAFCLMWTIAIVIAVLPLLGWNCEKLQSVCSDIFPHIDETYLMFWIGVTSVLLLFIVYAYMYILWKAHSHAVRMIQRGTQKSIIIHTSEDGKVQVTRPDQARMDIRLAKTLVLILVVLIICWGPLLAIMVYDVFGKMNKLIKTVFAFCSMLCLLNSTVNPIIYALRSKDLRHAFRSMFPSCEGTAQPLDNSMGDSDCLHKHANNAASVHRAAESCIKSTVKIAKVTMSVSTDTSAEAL

This experiment has as its target T1, human CB1 receptor (Homo sapiens, UniProt P21554).
T1 construct: expressed in transfected cells; membrane preparation
The experiment in a line: Cannabinoid Receptor-1 functional assay: inhibition of CP55940-induced [35S]GTPγS binding to membranes from CHO-K1 cells expressing the human CB1 receptor. As to conditions: antagonizing CB1 receptor agonist CP55940 (3 nM), [35S]GTPγS SPA, read-out: Antagonism IC50. It counts as biochemical. The source says: Transfection and Cell Culture—The cDNA encoding the human CB1 (Cannabinoid Receptor-1) receptor (GenBank accession number NM_016083) was cloned from a human adipose tissue cDNA library and cloned into the eukaryotic expression vector pcDNA3.1 (Invitrogen).
Chinese Hamster Ovary cells (CHO-K1) stably expressing recombinant human CB1 receptors were generated by transfecting the plasmid containing the coding sequence of the human CB1 receptor in CHO-K1 cells, using lipofectamine, according to the manufacturers instructions. Resistant clones were selected in the presence of 600 μg/ml G418 (Life technology). Stably transfected CHO-K1 cells were maintained in Ham's F-12 culture medium (Invitrogen), supplemented with 10% fetal calf serum (Invitrogen), 100 U/ml penicillin, 100 μg/ml streptomycin (Life Technology), and 600 μg/ml G418.
Cannabinoid Receptor-1 Functional Assay.
Functional activities of the above examples of compounds of the invention were assessed in vitro by measuring their ability to inhibit CP55940-induced [^35S]GTPγS binding to membranes prepared from CHO-K1 cells expressing the human CB1 receptor (described in Transfection and Cell Culture). CP55940 is a well known non-selective CB1 and CB2 receptor agonist (e.g Felder et al., 1995, Molecular Pharmacology, (48) 443-50). Membranes were prepared by a standard procedure. Briefly, cells were harvested using 10 mM EDTA and collected by centrifugation. Pelleted cells were homogenized in ice-cold 20 mM Hepes (pH 7.4), 10 mM EDTA and protease inhibitors (Complete protease inhibitor cocktail tablet, Roche) using an Ultra Turrax Homogenizer. The homogenate was centrifuged at 14 000 rpm for 45 min. at 4° C. The resultant pellet was resuspended in the same buffer but with only 0.1 mM EDTA and was again centrifuged at 14 000 rpm for 45 min. at 4° C. The resulting pellet (membranes) was resuspended in 20 mM Hepes (pH 7.4), 0.1 mM EDTA, 2 mM MgCl2 and protease inhibitors and protein concentration was determined by Micro BCA Protein Assay Reagent Kit (Pierce Biotechnology) according to the manufacturers instructions. The [^35S]GTPγS SPA (Scintillation Proximity Assay) binding assay was performed by incubating 5 μg/well membranes prepared from CHO-K1 cells expressing the human CB1 receptor with 1 nM [^35S]GTPγS (Perkin Elmer—NEG 030H) in the presence of 3 nM of CP55940 and various concentrations of the test compounds at room temperature for 1 hr in 96-well microtiter plates. 0.4 mg/well SPA beads (PVT-WGA; RPNQ0001 Amersham Pharmacia Biotech) were then added and the incubation continued for further 30 min. on an orbital shaker. The assay buffer contained 50 mM HEPES (pH 7.5), 50 mM NaCl, 2.5 mM MgCl2, 0.1% BSA, 1 μM GDP and 100 μg/ml Saponin. Microtiter plates were centrifuged at 1500 rpm for 5 min. and radioactivity was read immediately using a Topcounter (PerkinElmer Life Sciences). Data were analyzed and IC50 values determined by non-linear regression analysis using the Prism software (GraphPad Software, San Diego).
In general terms: GTPγS resists hydrolysis and so accumulates on activated G proteins.
For orientation: IC50 means the midpoint of a concentration-inhibition curve. Take “1-(2-Chloro-phenyl)-5-(4-chloro-phenyl)-4-(5-oxo-4,5-dihydro-[1,3,4]oxadiazol-2-ylmethyl)-1H-pyrazole-3-carboxylic acid ((R)-1-p-tolyl-ethyl)-amide [Compound 2.02]”: the IC50 was less than 0.5 µM. The same measure for `N#CNC(=O)Cc1c(C(=O)N2CCC(Oc3cc(F)cc(F)c3)CC2)nn(-c2ccccc2Cl)c1-c1ccc(Cl)cc1` [Compound 4.03, {1-(2-Chloro-phenyl)-5-(4-chloro-phenyl)-3-[4-(3,5-difluoro-phenoxy)-piperidine-1-carbonyl]-1H-pyrazol-4-yl}-N-cyano-acetamide]: less than 0.5 µM; for `O=C1NC(=O)C(Cc2c(C(=O)N3CCC(c4ccccc4F)CC3)nn(-c3ccccc3Cl)c2-c2ccc(Cl)cc2)N1` (centres unmarked) [Compound 6.01, 5-{1-(2-Chloro-phenyl)-5-(4-chloro-phenyl)-3-[4-(2-fluoro-phenyl)-piperidine-1-carbonyl]-1H-pyrazol-4-ylmethyl}-imidazolidine-2,4-dione]: less than 0.5 µM. To `N#CNC(=O)Cc1c(C(=O)N2CCC(c3ccccc3F)CC2)nn(-c2ccccc2Cl)c1-c1ccc(Cl)cc1` [Compound 4.01, 2-{1-(2-Chloro-phenyl)-5-(4-chloro-phenyl)-3-[4-(2-fluoro-phenyl)-piperidine-1-carbonyl]-1H-pyrazol-4-yl}-N-cyano-acetamide] belongs less than 0.5 µM; to `C[C@H](c1ccc(C(F)(F)F)cc1)N(C)C(=O)c1nn(-c2ccccc2Cl)c(-c2ccc(Cl)cc2)c1C1CC(=O)NC1=O` (stereo partly drawn) [Compound 5.01, 1-(2-Chloro-phenyl)-5-(4-chloro-phenyl)-4-(2,5-dioxo-pyrrolidin-3-yl)-1H-pyrazole-3-carboxylic acid methyl-[(R)-1-(4-trifluoromethyl-phenyl)-ethyl]-amide], less than 0.5 µM; to `C[C@H](c1ccc(C(F)(F)F)cc1)N(C)C(=O)c1nn(-c2ccccc2Cl)c(-c2ccc(Cl)cc2)c1CC(=O)NC#N` [Compound 4.02, (1-(2-Chloro-phenyl)-5-(4-chloro-phenyl)-3-{methyl-[(R)-1-(4-trifluoromethyl-phenyl)-ethyl]-carbamoyl}-1H-pyrazol-4-yl)-N-cyano-acetamide], less than 0.5 µM.

On to `O=C(c1nn(-c2ccccc2Cl)c(-c2ccc(Cl)cc2)c1Cc1n[nH]c(=O)o1)N1CCC(c2ccccc2F)CC1` [Compound 2.01, 5-{5-(4-Chloro-phenyl)-1-(2-chloro-phenyl)-3-[4-(2-fluoro-phenyl)-piperidine-1-carbonyl]-1H-pyrazol-4-ylmethyl}-3H-[1,3,4]oxadiazol-2-one], for which the IC50 was less than 0.5 µM.

In the case of `CS(=O)(=O)NC(=O)Cc1c(C(=O)N2CCC(c3ccccc3F)CC2)nn(-c2ccccc2Cl)c1-c1ccc(Cl)cc1` [Compound 3.01, N-(2-{1-(2-Chloro-phenyl)-5-(4-chloro-phenyl)-3-[4-(2-fluoro-phenyl)-piperidine-1-carbonyl]-1H-pyrazol-4-yl}-acetyl)-methanesulfonamide], the IC50 is less than 0.5 µM. The same measure for `C[C@@H](NC(=O)c1nn(-c2ccccc2Cl)c(-c2ccc(Cl)cc2)c1Cc1noc(=O)[nH]1)c1ccc(C(F)(F)F)cc1` [Compound 1.01, 5-(4-Chloro-phenyl)-1-(2-chloro-phenyl)-4-(5-oxo-4,5-dihydro-[1,2,4]oxadiazol-3-ylmethyl)-1H-pyrazole-3-carboxylic acid [(R)-1-(4-trifluoromethyl-phenyl)-ethyl]-amide]: less than 0.5 µM. To `C[C@H](c1ccc(C(F)(F)F)cc1)N(C)C(=O)c1nn(-c2ccccc2Cl)c(-c2ccc(Cl)cc2)c1CC(=O)NS(C)(=O)=O` [Compound 3.02, 1-(2-Chloro-phenyl)-5-(4-chloro-phenyl)-4-(2-methanesulfonylamino-2-oxo-ethyl)-1H-pyrazole-3-carboxylic acid methyl-[(R)-1-(4-trifluoromethyl-phenyl)-ethyl]-amide] belongs less than 0.5 µM; to `C[C@@H](NC(=O)c1nn(-c2ccccc2Cl)c(-c2ccc(Cl)cc2)c1CC1NC(=O)NC1=O)c1ccc(C(F)(F)F)cc1` (some centres unmarked) [Compound 6.02], less than 0.5 µM.
